This passage reports IC50 results from US20230078764A1 (Yumanity Therapeutics, Inc., priority 2019, published 2023).

The structures appear in SMILES notation. pIC50: −log10 of the molar value. Some results are limits rather than exact numbers.

One assay concerns the target T1, human SCD1 (Homo sapiens, UniProt O00767).
T1 construct: expressed in transfected cells; host or cells: yeast strain with OLE1 deleted, plasmid-borne human SCD1 (selected in SD-Ura)
T1 sequence (O00767 1-359): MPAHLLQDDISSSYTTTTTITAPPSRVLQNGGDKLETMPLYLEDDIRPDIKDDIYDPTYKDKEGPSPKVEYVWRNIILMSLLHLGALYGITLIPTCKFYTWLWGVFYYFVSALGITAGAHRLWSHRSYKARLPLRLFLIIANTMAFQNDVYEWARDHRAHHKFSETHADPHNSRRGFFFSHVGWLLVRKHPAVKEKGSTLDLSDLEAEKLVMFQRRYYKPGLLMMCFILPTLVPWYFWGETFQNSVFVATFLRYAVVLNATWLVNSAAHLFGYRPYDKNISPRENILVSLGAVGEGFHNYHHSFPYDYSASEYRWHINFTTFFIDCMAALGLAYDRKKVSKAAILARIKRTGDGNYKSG
The assay is described as follows: Growth inhibition of yeast strain expressing human SCD1 as sole desaturase (OLE1 deleted), OD600 readout. It counts as cell-based. The settings on record: yeast strain expressing human SCD1 as sole desaturase; growth (OD600) after 40 h at 30° C.; read-out: SCD1 IC50.

The target of the next assay is T2, human SCD5 (Homo sapiens, UniProt Q86SK9).
T2 construct: expressed in transfected cells; host or cells: yeast strain with OLE1 deleted, plasmid-borne human SCD5 (selected in SD-Ura)
T2 sequence (Q86SK9 1-330): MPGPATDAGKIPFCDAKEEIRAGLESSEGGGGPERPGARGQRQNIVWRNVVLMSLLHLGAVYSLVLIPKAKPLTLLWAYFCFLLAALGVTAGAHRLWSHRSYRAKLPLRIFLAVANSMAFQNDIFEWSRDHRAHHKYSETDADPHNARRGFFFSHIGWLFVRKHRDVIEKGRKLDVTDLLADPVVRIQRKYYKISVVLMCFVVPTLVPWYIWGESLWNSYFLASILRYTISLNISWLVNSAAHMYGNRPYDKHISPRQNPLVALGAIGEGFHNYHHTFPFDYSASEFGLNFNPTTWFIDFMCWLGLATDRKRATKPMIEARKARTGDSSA
The assay is described as follows: Growth inhibition of yeast strain expressing human SCD5 as sole desaturase (OLE1 deleted), OD600 readout. It counts as cell-based. The note with it: yeast strain expressing human SCD5 as sole desaturase; growth (OD600) after 40 h at 30° C.; read-out: SCD5 IC50.

Consider `O=C(Nc1ccc(Cc2ccc(F)c(F)c2)cn1)c1ncc(Br)cn1` [Compound 518], for which the pIC50 – broadly, the IC50 on a negative log10 scale, so that one unit is a factor of ten – at human SCD1 is less than 4.35; on human SCD5 it was 5.77.
In the case of `C[C@H](O)c1ccc(C(=O)Nc2ccc(Cc3cccc(Cl)c3)cn2)cn1` [Compound 519], the pIC50 at human SCD1 was 6.06; at human SCD5, 6.66.
As to `C[C@@H](O)c1ccc(C(=O)Nc2ccc(Cc3cccc(Cl)c3)cn2)cn1` [Compound 520], the figures for the pIC50 on human SCD1 and on human SCD5 were 6.44 and 7.05, respectively.
Turning to `C#Cn1nc(C(=O)Nc2ccc(Cc3cccc(Cl)c3)cn2)ccc1=O` [Compound 521], the results for the pIC50 on human SCD1 and on human SCD5 were 5.60 and 5.28, respectively.
As for `CC(O)c1ccc(C(=O)Nc2ccc(Cc3ccc(F)c(Cl)c3)cn2)cn1` (stereo not drawn) [Compound 522], the pIC50 is 6.44 at human SCD1 and 7.22 on human SCD5.
For `Cc1cc(C(=O)Nc2ccc(Cc3ccc(F)c(F)c3)cn2)nn(C)c1=O` [Compound 523] the same measures were less than 4.35 and 6.96.
For `Cc1cc(C(=O)Nc2ccc(Cc3cc(F)cc(F)c3)cn2)nn(C)c1=O` [Compound 524], the results for the pIC50 at human SCD1 and on human SCD5 were less than 4.35 and 7.54, respectively.
As to `N#Cc1ncc(C(=O)Nc2ccc(Cc3ccc(F)c(F)c3)cn2)cn1` [Compound 525], the pIC50 on human SCD1 is less than 4.35; at human SCD5, 6.26.
The matching figures for `N#Cc1ccc(NC(=O)c2ccc(Cc3cc(F)cc(F)c3)cn2)cn1` [Compound 526]: 7.00 and 8.00.
The matching figures for `O=C(Nc1ccc(Cc2cccc(F)c2)cn1)c1cc2ncnc(Cl)c2s1` [Compound 527]: less than 4.35 and 5.89.
For `Cn1nc(C(=O)Nc2ccc(Cc3cc(F)c(F)c(Cl)c3)cn2)ccc1=O` [Compound 528] the same measures were 7.22 and 8.00.
For `CC(O)c1ccc(C(=O)Nc2ccc(Cc3cccc(F)c3)cn2)cn1` (stereo not drawn) [Compound 529], the pIC50 at human SCD1 is 5.96; on human SCD5, 6.17.
With `CC(O)c1ccc(C(=O)Nc2ccc(Cc3ccc(F)c(F)c3)cn2)nn1` (stereo not drawn) [Compound 530], the pIC50 was 6.80 at human SCD1 and 6.72 on human SCD5.
In the case of `CCc1cc(C(=O)Nc2ccc(Cc3cccc(F)c3)cn2)nn(C)c1=O` [Compound 531], the pIC50 is 5.89 at human SCD1 and 6.47 on human SCD5.
On to `Cn1nccc(C(=O)Nc2ccc(Cc3cc(F)cc(F)c3)cn2)c1=O` [Compound 532], for which the pIC50 at human SCD1 and at human SCD5 was 8.00 throughout.
Turning to `Cn1ccc(C(=O)Nc2ccc(Cc3cc(F)cc(F)c3)cn2)cc1=O` [Compound 533], the results for the pIC50 on human SCD1 and on human SCD5 were 6.66 and 8.00, respectively.
Turning to `N#Cc1ccc(C(=O)Nc2ccc(Cc3ccc(F)c(C#N)c3)cn2)nc1` [Compound 534], the values for the pIC50 on human SCD1 and at human SCD5 were 5.22 and 6.70, respectively.
On to `N#Cc1cc(F)cc(Cc2ccc(NC(=O)c3ccc(C#N)nc3)nc2)c1` [Compound 535], for which the pIC50 on human SCD1 is less than 4.35; on human SCD5, 6.32.
The matching figures for `N#Cc1ccc(C(=O)Nc2ccc(Cc3cc(F)cc(C#N)c3)cn2)nc1` [Compound 536]: 6.00 and 6.96.
As for `Cn1nc(C(=O)Nc2ccc(Cc3ccc(F)cc3F)cn2)ccc1=O` [Compound 537], the results for the pIC50 at human SCD1 and on human SCD5 were 4.77 and 6.31, respectively.
As for `Cn1cc(C(=O)Nc2ccc(Cc3ccc(F)cc3F)cn2)ccc1=O` [Compound 538], the pIC50 at human SCD1 is 5.80; at human SCD5, 6.74.
Regarding `Cn1nc(C(=O)Nc2ccc(Cc3cc(F)ccc3F)cn2)ccc1=O` [Compound 539], the pIC50 at human SCD1 is 5.46; on human SCD5, 6.77.
`Cn1nc(CO)cc1C(=O)Nc1ccc(Cc2cccc(F)c2)cn1` [Compound 540]: the figures for the negative logarithm of the IC50 (pIC50) on human SCD1 and at human SCD5 were 7.22 and 8.00, respectively.
In the case of `N#Cc1ccc(C(=O)Nc2ccc(Cc3ccc(F)c(F)c3)cn2)cn1` [Compound 541], the pIC50 on human SCD1 is 5.18; on human SCD5, 6.66.
